Where two headings read alike, the source gives them in different places. Bridge positions count the residues as written; N and C are the ends. Square brackets hold non-standard residues; d marks the D form. Peptide text beside a SMILES is read from it. * marks the point of attachment. Heptanoyl(5-Me) = CCC(C)CCCC(=O)*; Dab = NCC[C@H](N)C(=O)O

One assay relates to A. guillouiae 1285286. The assay can be described thus: Checkerboard fusidic acid (FD) and colistin sulfate (CS), MIC/FIC and MBC/FBC. It is filed as cell-based, Acinetobacter guillouiae. The method, then:
Checkerboard assays between fusidic acid (FD) and colistin sulfate (CS) with a bacterial load 5(1-10)*10^5 CFU/ml in cationic adapted Mueller Hinton broth (CAMHB). • a. Antimicrobial stock solutions were prepared using sterile distilled water; • b. CS was added along the ordinate; FD was added along the abscissa to 96 well, flat bottom, polystyrene panels with no treatment. Colistin alone was tested in triplicates; • c. Serial 2-fold dilutions starting with 640 […] CS and 640 μg/ml FD were made; 15 μl volume of the serial dilutions were added for each agent to the appropriate wells—final volume at 30 μl; • d. For each agent tested alone an additional 15 μl media was added to the well. 30 μl were added in control wells where none of the agent was tested. The negative control well contains 150 μl media without any additions; • e. From an overnight bacterial culture in tryptic soy broth, 100 μL was added to 10 mL of fresh tryptic soy broth. This was then incubated at 37° C. for 1.5 hour at 180 rpm; • f. Bacteria in 120 μl CAMHB were added to each well (end concentration 5(1-10)*10^5 CFU/ml); • g. Plates were incubated at 37° C. in an ambient air incubator for 24 h • h. Turbidity at OD600 is determined with a plate photometer • i. By using a one-time inoculator 3 μl from each well of the 96-well plate were transferred to three blood agar plates. The plates were incubated over night at 37° C. in an ambient air incubator; • j. MIC values are defined as lowest concentration which restricts bacterial growth to OD600≤0.1; • k. MBC values were determined by visual reading the lowest concentration which inhibits 99.9% of the growth of bacteria in the wells; • l. Determination of the fractional inhibitory concentration (FIC) index and fractional bactericidal concentration (FBC) index and characterization of antimicrobial interactions was assessed;
FIC calculation was carried out as: (MIC of drug A, tested in combination)/(MIC of drug A, tested alone)+(MIC of drug B, tested in combination)/(MIC of drug B, tested alone). FBC calculation was carried out just as well;
(§1) Interactive categories were calculated from checkerboard analysis using MIC results from testing each agent alone and MIC results from the combination wells adjacent to the wells with growth in them.
Determination of the fractional inhibitory concentration (FIC) index and fractional bactericidal concentration (FBC) index and characterization of antimicrobial interactions was assessed:
(ii) Indifference; FIC/FBC>0.5 to <4.0
(iii) Antagonism; FIC/FBC≥4.0
d. Acinetobacter guillouiae 1285286 (IHMA), colistin resistant (2xCS 2/4)

For another assay, the system named is S. maltophilia 1221783. Description: Checkerboard fusidic acid (FD) and colistin sulfate (CS), MIC/FIC. It is filed as cell-based, Stenotrophomonas maltophilia. Conditions: agent alone, CAMHB, 1*10^6 CFU/ml, 24 h. Here is the method:
Checkerboard assays between fusidic acid (FD) and colistin sulfate (CS) with a bacterial load 5(1-10)*10^5 CFU/ml in cationic adapted Mueller Hinton broth (CAMHB). • a. Antimicrobial stock solutions were prepared using sterile distilled water; • b. CS was added along the ordinate; FD was added along the abscissa to 96 well, flat bottom, polystyrene panels with no treatment. Colistin alone was tested in triplicates; • c. Serial 2-fold dilutions starting with 640 […] CS and 640 μg/ml FD were made; 15 μl volume of the serial dilutions were added for each agent to the appropriate wells—final volume at 30 μl; • d. For each agent tested alone an additional 15 μl media was added to the well. 30 μl were added in control wells where none of the agent was tested. […] Turbidity at OD600 is determined with a plate photometer • i. […] Determination of the fractional inhibitory concentration (FIC) index and fractional bactericidal concentration (FBC) index and characterization of antimicrobial interactions was assessed; […]
as §1
Determination of the fractional inhibitory concentration (FIC) index and fractional bactericidal concentration (FBC) index and characterization of antimicrobial interactions was assessed: […]

As to `CCC(C)CCCC(=O)N[C@@H](CCN)C(=O)N[C@H](C(=O)N[C@@H](CCN)C(=O)N[C@H]1CCNC(=O)[C@H]([C@@H](C)O)NC(=O)[C@H](CCN)NC(=O)[C@H](CCN)NC(=O)[C@H](CC(C)C)NC(=O)[C@@H](CC(C)C)NC(=O)[C@H](CCN)NC1=O)[C@@H](C)O` (stereo partly drawn) [CS, colistin sulphate] ({Heptanoyl(5-Me)}-[Dab]T[Dab][Dab][Dab][dL]L[Dab][Dab]T; lactam 4-C), the MIC was found to be 2 mg/1l in the assay with A. guillouiae 1285286 (A. guillouiae 1285286, agent alone, CAMHB, 1*10^6 CFU/ml, 24 h); 2 µg/mL with A. guillouiae 1285286 (organism list of Example 3, Acinetobacter guillouiae 1285286, 2x, read-out: Colistin CS MIC); 0.5 mg/1l in the assay with S. maltophilia 1221783. Also, the MBC was determined as 4 µg/mL in the assay with A. guillouiae 1285286 (Acinetobacter guillouiae, 1285286, A. guillouiae, agent alone, CAMHB, 1*10^6 CFU/ml, read-out: MBC) and 4 µg/mL in the assay on A. guillouiae 1285286 (organism list of Example 3, Acinetobacter guillouiae 1285286, 2x, read-out: Colistin CS MBC).

One may read the MBC as the smallest concentration meeting the test's criterion for killing.

(Values after patent US20220016200A1, “PHARMACEUTICAL COMPOSITION FOR THE TREATMENT OF CYSTIC FIBROSIS” (GALENUS G.H. AG, priority 2018, published 2022).)
